# Key:
# [1] = tested on: P388/ADR; assay: Antiproliferative activity against mouse P388/ADR cells assessed as reduction in cell viability measured after 72 hrs; assay type: functional, cell-based; settings: time 72 hrs
# [2] = Antiproliferative activity against mouse P388 cells assessed as reduction in cell viability measured after 72 hrs; assay type: functional, cell-based; settings: time 72 hrs
# [3] = tested on: MCF7; assay: Anticancer activity against human MCF7 cells; assay type: functional, cell-based
# [4] = tested on: A549; assay: Antiproliferative activity against human A549 cells; assay type: functional, cell-based
# [5] = tested on: MDA-MB-231; assay: Antiproliferative activity against human MDA-MB-231 cells assessed as reduction in cell viability; assay type: functional, cell-based
# [6] = tested on: HT-29; assay: Antiproliferative activity against human HT-29 cells assessed as reduction in cell viability; assay type: functional, cell-based
# [7] = Antiproliferative activity against human MRC5 cells assessed as reduction in cell viability; assay type: toxicity, cell-based
# [8] = tested on: HCT-116; assay: Antiproliferative activity against human HCT-116 cells assessed as reduction in cell viability; assay type: functional, cell-based; settings: Homo sapiens, HCT-116
# [9] = Antiproliferative activity against human U-87 MG cells; assay type: functional, cell-based, U-87MG ATCC
# [10] = tested on: NCI-H460; assay: Antiproliferative activity against human NCI-H460 cells; assay type: functional, cell-based
# [11] = tested on: MDA-MB-231; assay: Antiproliferative activity against human MDA-MB-231 cells; assay type: functional, cell-based; settings: Homo sapiens, MDA-MB-231
Structure (SMILES),GI50 [1] [µM],GI50 [2] [µM],IC50 [3] [µM],IC50 [4] [µM],IC50 [5] [µM],IC50 [6] [µM],IC50 [7] [µM],IC50 [8] [µM],IC50 [9] [µM],IC50 [10] [µM],IC50 [11] [µM]
C[C@H]1[C@@H](Oc2ccc(C(=O)N3CCN(c4ccccc4)CC3)cc2)O[C@@H]2O[C@@]3(C)CC[C@H]4[C@H](C)CC[C@@H]1[C@@]24OO3,0.0221,0.0221,–,–,–,–,–,–,–,–,–
C.C[C@H]1[C@@H](CC(=O)O[C@@H]2C[C@@H](OC(=O)C[C@H]3O[C@@H]4O[C@@]5(C)CC[C@H]6[C@H](C)CC[C@@H]([C@H]3C)[C@@]46OO5)[C@H](C)O[C@H]2O[C@H](C)CCCCC(=O)O)O[C@@H]2O[C@@]3(C)CC[C@H]4[C@H](C)CC[C@@H]1[C@@]24OO3,–,–,5.5,5.5,5.5,–,–,–,–,–,–
Cc1c(C)c2cccc(OCc3cn(CCO[C@@H]4O[C@@H]5O[C@@]6(C)CC[C@H]7[C@H](C)CC[C@@H]([C@H]4C)[C@@]57OO6)nn3)c2oc1=O,–,–,–,–,0.43,0.43,0.43,0.43,–,–,–
C[C@H]1[C@@H](Oc2ccc(C(=O)N3CCN(Cc4ccccc4)CC3)cc2)O[C@@H]2O[C@@]3(C)CC[C@H]4[C@H](C)CC[C@@H]1[C@@]24OO3,0.0221,0.0221,–,–,–,–,–,–,–,–,–
Cc1cc(=O)oc2c(OCc3cn(CCCO[C@@H]4O[C@@H]5O[C@@]6(C)CC[C@H]7[C@H](C)CC[C@@H]([C@H]4C)[C@@]57OO6)nn3)cccc12,–,–,–,–,0.43,0.43,0.43,0.43,–,–,–
Cc1ccccc1NS(=O)(=O)/C=C/c1cccc(OCCO[C@@H]2O[C@@H]3O[C@@]4(C)CC[C@H]5[C@H](C)CC[C@@H]([C@H]2C)[C@@]35OO4)c1,–,–,–,0.05,–,0.05,–,–,0.05,0.05,0.05
C[C@H]1[C@H](OCCNC(=O)c2ccc(COc3ccc(/C=C/S(=O)(=O)Nc4ccc(OC(F)(F)F)cc4)cc3)cc2)O[C@@H]2O[C@@]3(C)CC[C@H]4[C@H](C)CC[C@@H]1[C@@]24OO3,–,–,–,–,–,0.09,–,–,0.09,–,0.09
C[C@H]1[C@H](OCCOc2cccc(/C=C/S(=O)(=O)Nc3ccc(OC(F)(F)F)cc3)c2)O[C@@H]2O[C@@]3(C)CC[C@H]4[C@H](C)CC[C@@H]1[C@@]24OO3,–,–,–,0.05,–,0.05,–,–,0.05,0.05,0.05
Cc1c(Cl)c(=O)oc2c(OCc3cn(CCCO[C@@H]4O[C@@H]5O[C@@]6(C)CC[C@H]7[C@H](C)CC[C@@H]([C@H]4C)[C@@]57OO6)nn3)cccc12,–,–,–,–,0.43,0.43,0.43,0.43,–,–,–
C[C@H]1[C@H](OCCOc2cccc(/C=C/S(=O)(=O)Nc3ccccc3)c2)O[C@@H]2O[C@@]3(C)CC[C@H]4[C@H](C)CC[C@@H]1[C@@]24OO3,–,–,–,0.05,–,0.05,–,–,0.05,0.05,0.05
C[C@H]1[C@H](OCCn2cc(COc3cccc4c(C(F)(F)F)cc(=O)oc34)nn2)O[C@@H]2O[C@@]3(C)CC[C@H]4[C@H](C)CC[C@@H]1[C@@]24OO3,–,–,–,–,0.43,0.43,0.43,0.43,–,–,–
CCOC(=O)c1cc2cccc(OCc3cn(CCO[C@@H]4O[C@@H]5O[C@@]6(C)CC[C@H]7[C@H](C)CC[C@@H]([C@H]4C)[C@@]57OO6)nn3)c2oc1=O,–,–,–,–,0.43,0.43,0.43,0.43,–,–,–
C[C@H]1[C@H](OCCOc2cccc(/C=C/S(=O)(=O)Nc3c(Cl)cccc3Cl)c2)O[C@@H]2O[C@@]3(C)CC[C@H]4[C@H](C)CC[C@@H]1[C@@]24OO3,–,–,–,0.05,–,0.05,–,–,0.05,0.05,0.05
C[C@H]1[C@H](OCCOc2cccc(/C=C/S(=O)(=O)Nc3ccccc3Cl)c2)O[C@@H]2O[C@@]3(C)CC[C@H]4[C@H](C)CC[C@@H]1[C@@]24OO3,–,–,–,0.05,–,0.05,–,–,0.05,0.05,0.05
Cc1ccc(F)c(NS(=O)(=O)/C=C/c2ccc(OCc3ccc(C(=O)NCCO[C@@H]4O[C@@H]5O[C@@]6(C)CC[C@H]7[C@H](C)CC[C@@H]([C@H]4C)[C@@]57OO6)cc3)cc2)c1,–,–,–,0.09,–,0.09,–,–,0.09,0.09,0.09
C[C@H]1[C@H](OCCOc2cccc(/C=C/S(=O)(=O)Nc3cccc(Cl)c3)c2)O[C@@H]2O[C@@]3(C)CC[C@H]4[C@H](C)CC[C@@H]1[C@@]24OO3,–,–,–,0.05,–,0.05,–,–,0.05,0.05,0.05
Cc1c(Cl)c(=O)oc2c(OCc3cn(CCO[C@@H]4O[C@@H]5O[C@@]6(C)CC[C@H]7[C@H](C)CC[C@@H]([C@H]4C)[C@@]57OO6)nn3)cccc12,–,–,–,–,0.43,0.43,0.43,0.43,–,–,–
Cc1c(C)c2cccc(OCc3cn(CCCO[C@@H]4O[C@@H]5O[C@@]6(C)CC[C@H]7[C@H](C)CC[C@@H]([C@H]4C)[C@@]57OO6)nn3)c2oc1=O,–,–,–,–,0.43,0.43,0.43,0.43,–,–,–
C[C@H]1[C@@H](Oc2ccc(C(=O)N3CCN(C/C=C/c4ccccc4)CC3)cc2)O[C@@H]2O[C@@]3(C)CC[C@H]4[C@H](C)CC[C@@H]1[C@@]24OO3,0.0221,0.0221,–,–,–,–,–,–,–,–,–
C[C@H]1[C@H](OCCNC(=O)c2ccc(COc3ccc(/C=C/S(=O)(=O)Nc4ccc(Cl)cc4)cc3)cc2)O[C@@H]2O[C@@]3(C)CC[C@H]4[C@H](C)CC[C@@H]1[C@@]24OO3,–,–,–,–,–,0.09,–,–,0.09,0.09,0.09
Cc1ccc(F)c(NS(=O)(=O)/C=C/c2cccc(OCCOC3O[C@@H]4O[C@@]5(C)CC[C@H]6[C@H](C)CC[C@@H]([C@H]3C)[C@@]46OO5)c2)c1 (stereo partly specified),–,–,–,0.05,–,0.05,–,–,0.05,0.05,0.05
Cc1cc(=O)oc2c(OCc3cn(CCO[C@@H]4O[C@@H]5O[C@@]6(C)CC[C@H]7[C@H](C)CC[C@@H]([C@H]4C)[C@@]57OO6)nn3)cccc12,–,–,–,–,0.43,0.43,0.43,0.43,–,–,–
CCOC(=O)c1cc2cccc(OCc3cn(CCCO[C@@H]4O[C@@H]5O[C@@]6(C)CC[C@H]7[C@H](C)CC[C@@H]([C@H]4C)[C@@]57OO6)nn3)c2oc1=O,–,–,–,–,0.43,0.43,0.43,0.43,–,–,–
C[C@H]1[C@H](OCCNC(=O)c2ccc(COc3ccc(/C=C/S(=O)(=O)Nc4cccc(Cl)c4)cc3)cc2)O[C@@H]2O[C@@]3(C)CC[C@H]4[C@H](C)CC[C@@H]1[C@@]24OO3,–,–,–,0.09,–,0.09,–,–,–,0.09,0.09
"C[C@@H]1CC[C@H]2[C@@H](C)C(OCCOc3cccc(/C=C/S(=O)(=O)Nc4ccc(Cl)cc4)c3)O[C@@H]3O[C@@]4(C)CC[C@@H]1[C@]32OO4 (single isomer, unassigned)",–,–,–,0.05,–,0.05,–,–,0.05,0.05,0.05

# — ChEMBL document CHEMBL5244230, “Artemisinin-derived hybrids and their anticancer activity” (Eur J Med Chem, 2020)
